Experimental data published in patent US20120035144A1 (APEX LABORATORIES PRIVATE LIMITED, priority 2009, published 2012).
Structures can show the parent of a compound that is named as a salt.

Columns and labels:
[1] = Stability of raw API, stability indicating HPLC method; assay type: physicochemical; conditions: Sodium Fusidate compared with Fusidic acid, Tables 1 and 2
Text: In both studies the * Initial denotes the results of the samples tested at the time of receipt of the API from the supplier.

[2] = cited from earlier work

SMILES	stability as an API [1]	Protein binding [2]
CC(=O)O[C@H]1C[C@@]2(C)[C@@H](C[C@@H](O)[C@H]3[C@@]4(C)CC[C@@H](O)[C@@H](C)[C@@H]4CC[C@@]32C)/C1=C(\CCC=C(C)C)C(=O)O [Sodium Fusidate, 3μ,11μ,16β-Trihydroxy 29-nor-8μ,9β,13μ,14β-dammara-17(20)[10,21-cis], 24-dien-21-oic acid 16-acetate, sodium salt]	more stable than Fusidic acid	–
Clc1ccccc1C(c1ccccc1)(c1ccccc1)n1ccnc1 [Clotrimazole, 1-(o-Chloro-α,α-diphenylbenzyl)imidazole]	–	about 90%
